Laboratory results taken from patent US8686113B2 (priority 2009, dated 2014).
Converted amounts (≈) assume the structure as drawn. Non-standard residues stand in square brackets, D forms with d. Residues, ends and D or L forms follow the SMILES beside them. Hyp = O=C(O)[C@@H]1C[C@@H](O)CN1; dOrn = NCCC[C@@H](N)C(=O)O; Orn = NCCC[C@H](N)C(=O)O

Key:
E. coli BL21 A1 = assay type: cell-based, Escherichia coli; settings: BL21, 20 h
Experimental: (§1) The minimum inhibitory concentrations (MIC) of the antimicrobial peptides and peptide derivatives were determined in microdilution assays. These used a continuous peptide dilution in sterile flat-bottomed 96-well microtiter plates (polystyrene, Greiner Bio-One GmbH, Frickenhausen, Germany) and a total volume of 100 μL per well. The aqueous peptide or peptidomimetic solutions were diluted with 1% TSB water, to obtain a final concentration of 256 μg/mL. 50 μL of the peptide or peptidomimetic solution was pipetted into the first well of each series and stirred. From this solution, 50 μL was transferred to the second well, stirred and again 50 μL was transferred to the next well, and so on. A double dilution series is obtained, beginning at 256 μg/mL in the first well to 125 ng/mL in the twelfth well. The bacteria, e.g. E. coli BL21 A1, were cultured overnight at 37° C. in nutrient broth (NB, Carl Roth GmbH+Co. KG, Karlsruhe, Germany). 50 μL of a 5×10^6 bacteria/mL suspension in 1% TSB was added to each well of the microtiter plate and thus a final concentration of the peptides or peptidomimetics from 128 μg/mL (well 1) to 62.5 ng/mL (well 12) was established in each series. The plates were incubated at 37° C. for 20 h and then the absorption was measured at 595 nm with a TECAN microtiter plate spectrophotometer (Tecan Trading AG, Mannedorf, Switzerland). The MIC values of all peptides and peptidomimetics were determined in triplicate. Sterile water was used as negative control. The MIC value represents the lowest peptide concentration at which no bacterial growth is observed after an incubation time of 20 h at 37° C.
(§2) The MIC values of the peptides and peptide derivatives against Escherichia coli BL21 A1 and Micrococcus luteus ATCC 10240 are given in Table 7.

M. luteus 10240 = assay: Growth inhibition assay (microdilution MIC); assay type: cell-based, Micrococcus luteus; settings: 10240, 20 h
Experimental: as §1, §2

| Compound | MIC E. coli BL21 A1 (E. coli BL21 A1) [µg/mL] | MIC M. luteus 10240 (M. luteus 10240) [µg/mL] |
| --- | --- | --- |
| CC[C@H](C)[C@H](NC(=O)[C@H](CCCNC(=N)N)NC(=O)[C@H](CCCNC(=N)N)NC(=O)[C@@H]1CCCN1C(=O)[C@@H]1CCCN1C(=O)[C@H](CCCNC(=N)N)NC(=O)[C@@H]1CCCN1C(=O)[C@H](CCCNC(=N)N)NC(=O)[C@@H]1CCCN1C(=O)[C@H](CC(C)C)NC(=O)[C@H](Cc1ccc(O)cc1)NC(=O)[C@@H]1CCCN1C(=O)[C@@H]1CCCN1C(=O)[C@H](CCCCN)NC(=O)[C@H](CC(=O)O)NC(=O)[C@@H](N)CCCN)C(=O)N[C@@H](Cc1ccc(O)cc1)C(=O)N[C@@H](CC(N)=O)C(=O)N[C@@H](CCCNC(=N)N)C(N)=O [compound 82] (H-[Orn]DKPPYLPRPRPPRRIYNR-NH2) | 8 (≈ 3.33 µM) | 8 (≈ 3.33 µM) |
| CC[C@H](C)[C@H](NC(=O)[C@H](Cc1ccc(O)cc1)NC(=O)[C@H](CC(N)=O)NC(=O)[C@@H](N)CCCN)C(=O)N[C@@H](CCCN)C(=O)N[C@@H](CCCNC(=N)N)C(=O)N1CCC[C@H]1C(=O)N1CCC[C@H]1C(=O)N[C@@H](CCCNC(=N)N)C(=O)N1CCC[C@H]1C(=O)N[C@@H](CCCNC(=N)N)C(=O)N1CCC[C@H]1C(=O)N[C@@H](CC(C)C)C(=O)N[C@@H](Cc1ccc(O)cc1)C(=O)N1CCC[C@H]1C(=O)N1CCC[C@H]1C(=O)N[C@@H](CCCCN)C(=O)N[C@@H](CC(=O)O)C(=O)N[C@H](C(N)=O)C(C)C [compound 113] (H-[Orn]NYI[Orn]RPPRPRPLYPPKDV-NH2) | >256 | 64 (≈ 27.8 µM) |
| CC[C@H](C)[C@H](NC(=O)[C@H](Cc1ccc(O)cc1)NC(=O)[C@H](CC(N)=O)NC(=O)[C@@H](N)CCCN)C(=O)N1C[C@H](O)C[C@H]1C(=O)N[C@@H](CCCNC(=N)N)C(=O)N1CCC[C@H]1C(=O)N1CCC[C@H]1C(=O)N[C@@H](CCCNC(=N)N)C(=O)N1CCC[C@H]1C(=O)N[C@@H](CCCNC(=N)N)C(=O)N1CCC[C@H]1C(=O)N[C@@H](CC(C)C)C(=O)N[C@@H](Cc1ccc(O)cc1)C(=O)N1CCC[C@H]1C(=O)N1CCC[C@H]1C(=O)N[C@@H](CCCCN)C(=O)N[C@@H](CC(=O)O)C(=O)N[C@H](C(N)=O)C(C)C [compound 114] (H-[Orn]NYI[Hyp]RPPRPRPLYPPKDV-NH2) | >256 | 128 (≈ 55.5 µM) |
| CC[C@@H](C)[C@@H](NC(=O)[C@@H](CCCN)NC(=O)[C@@H](CCCNC(=N)N)NC(=O)[C@H]1CCCN1C(=O)[C@H]1CCCN1C(=O)[C@@H](CCCNC(=N)N)NC(=O)[C@H]1CCCN1C(=O)[C@@H](CCCNC(=N)N)NC(=O)[C@H]1CCCN1C(=O)[C@@H](CC(C)C)NC(=O)[C@@H](Cc1ccc(O)cc1)NC(=O)[C@H]1CCCN1C(=O)[C@H]1CCCN1C(=O)[C@@H](CCCCN)NC(=O)[C@@H](CC(=O)O)NC(=O)[C@H](N)C(C)C)C(=O)N[C@H](Cc1ccc(O)cc1)C(=O)N[C@H](CC(N)=O)C(=O)N[C@H](CCCN)C(N)=O [compound 116] (H-[dV][dD][dK][dP][dP][dY][dL][dP][dR][dP][dR][dP][dP][dR][dOrn][dI][dY][dN][dOrn]-NH2) | 64 (≈ 27.8 µM) | 32 (≈ 13.9 µM) |
| CC[C@@H](C)[C@@H](NC(=O)[C@@H](Cc1ccc(O)cc1)NC(=O)[C@@H](CC(N)=O)NC(=O)[C@H](N)CCCN)C(=O)N[C@H](CCCN)C(=O)N[C@H](CCCNC(=N)N)C(=O)N1CCC[C@@H]1C(=O)N1CCC[C@@H]1C(=O)N[C@H](CCCNC(=N)N)C(=O)N1CCC[C@@H]1C(=O)N[C@H](CCCNC(=N)N)C(=O)N1CCC[C@@H]1C(=O)N[C@H](CC(C)C)C(=O)N[C@H](Cc1ccc(O)cc1)C(=O)N1CCC[C@@H]1C(=O)N1CCC[C@@H]1C(=O)N[C@H](CCCCN)C(=O)N[C@H](CC(=O)O)C(=O)N[C@@H](C(N)=O)C(C)C [compound 118] (H-[dOrn][dN][dY][dI][dOrn][dR][dP][dP][dR][dP][dR][dP][dL][dY][dP][dP][dK][dD][dV]-NH2) | 256 (≈ 111 µM) | 32 (≈ 13.9 µM) |
| H-VAKPPYLPRPRPPRRIYNR-NH2 [compound 30] | 16 | 4 |
| H-VDAPPYLPRPRPPRRIYNR-NH2 [compound 31] | 64 | 32 |
| H-VDKAPYLPRPRPPRRIYNR-NH2 [compound 32] | 8 | 8 |
| H-VDKPAYLPRPRPPRRIYNR-NH2 [compound 33] | 8 | 8 |
| H-VDKPPALPRPRPPRRIYNR-NH2 [compound 34] | 128 | 16 |
| H-VDKPPYLPRPAPPRRIYNR-NH2 [compound 39] | 64 | 16 |
| H-VDKPPYLPRPKPPRRIYNR-NH2 [compound 7] | 8 | 16 |
| H-VDKPPYLPRPQPPRRIYNR-OH [compound 12] | 64 | 64 |
| H-VDKPPYLPRPRPPARIYNR-NH2 [compound 42] | 16 | 32 |

Now from value to compound:

| MIC E. coli BL21 A1 (E. coli BL21 A1) [µg/mL] | MIC M. luteus 10240 (M. luteus 10240) [µg/mL] | Compound |
| --- | --- | --- |
| 16 (≈ 6.2 µM) | 16 (≈ 6.2 µM) | CC[C@H](C)[C@H](NC(=O)[C@H](CCCNC(=N)N)NC(=O)[C@H](CCCNC(=N)N)NC(=O)[C@@H]1CCCN1C(=O)[C@@H]1CCCN1C(=O)[C@H](CCCNC(=N)N)NC(=O)[C@@H]1CCCN1C(=O)[C@H](CCCNC(=N)N)NC(=O)[C@@H]1CCCN1C(=O)[C@H](CC(C)C)NC(=O)[C@H](Cc1ccc(O)cc1)NC(=O)[C@@H]1CCCN1C(=O)[C@@H]1CCCN1C(=O)[C@H](CCCCN)NC(=O)[C@H](CC(=O)O)NC(=O)[C@H](CCCN)NC(=O)[C@@H](CS)NC(=O)[C@H](C)N)C(=O)N[C@@H](Cc1ccc(O)cc1)C(=O)N[C@@H](CC(N)=O)C(=O)N[C@@H](CCCNC(=N)N)C(N)=O [compound 83] (H-A[dC][Orn]DKPPYLPRPRPPRRIYNR-NH2) |
| 64 (≈ 26.8 µM) | 16 (≈ 6.69 µM) | CC[C@@H](C)[C@@H](NC(=O)[C@@H](CCCNC(=N)N)NC(=O)[C@@H](CCCNC(=N)N)NC(=O)[C@H]1CCCN1C(=O)[C@H]1CCCN1C(=O)[C@@H](CCCNC(=N)N)NC(=O)[C@H]1CCCN1C(=O)[C@@H](CCCNC(=N)N)NC(=O)[C@H]1CCCN1C(=O)[C@@H](CC(C)C)NC(=O)[C@@H](Cc1ccc(O)cc1)NC(=O)[C@H]1CCCN1C(=O)[C@H]1CCCN1C(=O)[C@@H](CCCCN)NC(=O)[C@@H](CC(=O)O)NC(=O)[C@H](N)C(C)C)C(=O)N[C@H](Cc1ccc(O)cc1)C(=O)N[C@H](CC(N)=O)C(=O)N[C@H](CCCNC(=N)N)C(N)=O [compound 115] (H-[dV][dD][dK][dP][dP][dY][dL][dP][dR][dP][dR][dP][dP][dR][dR][dI][dY][dN][dR]-NH2) |
| 8 | 4 | H-ADKPPYLPRPRPPRRIYNR-NH2 [compound 29] |
| 32 | 8 | H-DKPPYLPRPRPPRRIYNR-NH2 [compound 86] |
| 128 | 16 | H-VDKPPYAPRPRPPRRIYNR-NH2 [compound 35] |
| 32 | 8 | H-VDKPPYIPRPRPPRRIYNR-NH2 [compound 77] |
| 32 | 8 | H-VDKPPYLARPRPPRRIYNR-NH2 [compound 36] |
| 32 | 32 | H-VDKPPYLPAPRPPRRIYNR-NH2 [compound 37] |
| 32 | 8 | H-VDKPPYLPRARPPRRIYNR-NH2 [compound 38] |
| 64 | 32 | H-VDKPPYLPRPFPPRRIYNR-OH [compound 13] |
| 64 | 32 | H-VDKPPYLPRPHPPRRIYNNR-OH [compound 8] |
| 64 | 16 | H-VDKPPYLPRPHPPRRIYNRN-OH [compound 9] |
| 32 | 16 | H-VDKPPYLPRPKPPRRIYNRN-OH [compound 6] |
| 64 | 64 | H-VDKPPYLPRPNPPRRIYNR-OH [compound 11] |
| 128 | 64 | H-VDKPPYLPRPPPPRRIYNNR-OH [compound 2] |
| 16 | 8 | H-VDKPPYLPRPRAPRRIYNR-NH2 [compound 40] |
| 16 | 8 | H-VDKPPYLPRPRPARRIYNR-NH2 [compound 41] |
| 32 | 16 | H-VDKPPYLPRPRPPRAIYNR-NH2 [compound 43] |
| 8 | 32 | H-VDKPPYLPRPRPPRHIYNH-NH2 [compound 64] |
| 128 | 8 | H-VDKPPYLPRPRPPRPIRV-OH [compound 48] |
